The record followed here is US6730679B1, “Pharmaceutical formulations” (SmithKline Beecham Corporation, priority 1996, dated 2004).

The nature of this data set: Aqueous solubility of the compound of formula (I). Type of data set: physicochemical. The text has this: Current formulations of HIV protease inhibitors for oral administration are in powder or tablet form. However, HIV protease inhibitors in these oral formulations are generally poorly soluble and, therefore, poorly bioavailable for the above reasons. […] In addition, the compound of formula (I) is poorly wetted. Therefore, formulating the compound using standard formulary techniques is difficult and leads in any event to a formulation with low bioavailability.

As to `CC(C)CN(C[C@@H](O)[C@H](Cc1ccccc1)NC(=O)O[C@H]1CCOC1)S(=O)(=O)c1ccc(N)cc1` (relative stereo) [compound of formula (I), 3S-[3R*(1R*, 2S*)]-[3-[[(4-aminophenyl)sulphonyl](2-methylpropyl)-amino]-2-hydroxy-1-phenylmethyl)propyl]carbamic acid, tetrahydro-3-furanyl ester], the “variation of aqueous solubility with pH” value (FIG. 1) was “does not significantly vary with pH”. This molecule gave a solubility (water (aqueous), room temperature) of 95 µg/mL.

A word on the solubility: it is how much of the substance goes into solution per volume. High values mean much dissolved substance, low ones little dissolved substance.
